Test results: the supplement of paper PMC4862054
Several values for one entry are separate records, joined by “and”; a condition that tells them apart may be missing. Identical values can stand only once.

Test system: Hs578T
Experiment: normalised viability (% of control), CellTiter-Blue; higher = more viable cells (about 100 = DMSO control)
Details: 1000 nM; incubation time: 72 h
Procedure, shortened: (§1)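 Breast cancer cell lines in 20 µl suspension were seeded onto 384-well plates pre-loaded with compound dissolved in 5 µl medium, then incubated 72 h. CellTiter-Blue reagent (2.5 µl) was added for 2 h at 37 °C and fluorescence read at 560/590 nm. Each plate was normalised to vehicle (100) and a positive kill control (0), with Z'-factor quality control. The value is normalised viability at one listed concentration of the series.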

With `Nc1ncn([C@H]2C[C@H](O)[C@@H](CO)O2)c(=O)n1` [Decitabine] the normalised viability was 92.5% and 114%.

Point of comparison: `O=C(Cc1ccc(-c2ccc(OCCN3CCOCC3)cc2)cn1)NCc1ccccc1` [KX2-391], normalised viability 15.4%. Against it:
- O=C(/C=C/c1cccnc1)NCCCCC1CCN(C(=O)c2ccccc2)CC1 [FK-866] — higher, 15.9%
- CC[C@@H]1C(=O)N(C)c2cnc(Nc3ccc(C(=O)NC4CCN(C)CC4)cc3OC)nc2N1C1CCCC1 [BI 2536] — higher, 65.3%
- CCN(CC)CCCC(C)Nc1c2ccc(Cl)cc2nc2ccc(OC)cc12 (stereo not given) [Mepacrine] — higher, 122%
- Nc1nc2[nH]cc(CCc3ccc(C(=O)N[C@@H](CCC(=O)O)C(=O)O)cc3)c2c(=O)[nH]1 [Pemetrexed] — higher, 106%
- COc1cc([C@@H]2c3cc4c(cc3[C@@H](O[C@@H]3O[C@@H]5CO[C@@H](c6cccs6)O[C@H]5[C@H](O)[C@H]3O)[C@H]3COC(=O)[C@H]23)OCO4)cc(OC)c1O [Teniposide] — higher, 94.5%
- COc1cc2nccc(Oc3ccc(NC(=O)Nc4cc(C)on4)c(Cl)c3)c2cc1OC [Tivozanib] — higher, 84.8%
- Nc1ccccc1NC(=O)c1ccc(CNC(=O)OCc2cccnc2)cc1 [Entinostat] — higher, 97.6%
- C=CC(=O)Nc1cc2c(Nc3ccc(F)c(Cl)c3)ncnc2cc1OCCCN1CCOCC1 [Canertinib] — higher, 108%
- CC[C@H](Nc1ncnc2[nH]cnc12)c1nc2cccc(F)c2c(=O)n1-c1ccccc1 [CAL-101] — higher, 112%

Same assay, conditions: 10000 nM; incubation time: 72 h

`Nc1ncn([C@H]2C[C@H](O)[C@@H](CO)O2)c(=O)n1` [Decitabine] was tested, and the normalised viability was 83.6% and 93.2%.

Point of comparison: `C=CC(=O)Nc1cc2c(Nc3ccc(F)c(Cl)c3)ncnc2cc1OCCCN1CCOCC1` [Canertinib], normalised viability 1.26%. Against it:
- CCN(CC)CCCC(C)Nc1c2ccc(Cl)cc2nc2ccc(OC)cc12 (stereo not given) [Mepacrine] — higher, 21.6%
- Nc1nc2[nH]cc(CCc3ccc(C(=O)N[C@@H](CCC(=O)O)C(=O)O)cc3)c2c(=O)[nH]1 [Pemetrexed] — higher, 82.5%
- COc1cc([C@@H]2c3cc4c(cc3[C@@H](O[C@@H]3O[C@@H]5CO[C@@H](c6cccs6)O[C@H]5[C@H](O)[C@H]3O)[C@H]3COC(=O)[C@H]23)OCO4)cc(OC)c1O [Teniposide] — higher, 12.2%
- COc1cc2nccc(Oc3ccc(NC(=O)Nc4cc(C)on4)c(Cl)c3)c2cc1OC [Tivozanib] — higher, 58.2%
- O=C(Cc1ccc(-c2ccc(OCCN3CCOCC3)cc2)cn1)NCc1ccccc1 [KX2-391] — higher, 20.5%
- Nc1ccccc1NC(=O)c1ccc(CNC(=O)OCc2cccnc2)cc1 [Entinostat] — higher, 25%
- CC[C@H](Nc1ncnc2[nH]cnc12)c1nc2cccc(F)c2c(=O)n1-c1ccccc1 [CAL-101] — higher, 86.8%

Test system: MDA-MB-231
Experiment: as above
Details: 0.25 nM; incubation time: 72 h
Procedure, shortened: as §1

For `CC(=O)Nc1cccc(-n2c(=O)n(C3CC3)c(=O)c3c(Nc4ccc(I)cc4F)n(C)c(=O)c(C)c32)c1`, the normalised viability was 101%.

Same assay, conditions: 0.99 nM; incubation time: 72 h

`CCN(CC)CCCC(C)Nc1c2ccc(Cl)cc2nc2ccc(OC)cc12` (stereo not given) [Mepacrine] was tested, and the normalised viability was 89.4%.

Same assay, conditions: 1 nM; incubation time: 72 h

Point of comparison: `O=C(/C=C/c1cccnc1)NCCCCC1CCN(C(=O)c2ccccc2)CC1` [FK-866], normalised viability 106%. Against it:
- CC[C@@H]1C(=O)N(C)c2cnc(Nc3ccc(C(=O)NC4CCN(C)CC4)cc3OC)nc2N1C1CCCC1 [BI 2536] — lower, 103%

Same assay, conditions: 10 nM; incubation time: 72 h

For `Nc1ncn([C@H]2C[C@H](O)[C@@H](CO)O2)c(=O)n1` [Decitabine], the normalised viability was 86.9% and 92.8%.

Point of comparison: `O=C(Cc1ccc(-c2ccc(OCCN3CCOCC3)cc2)cn1)NCc1ccccc1` [KX2-391], normalised viability 98.1%. Against it:
- CCN(CC)CCCC(C)Nc1c2ccc(Cl)cc2nc2ccc(OC)cc12 (stereo not given) [Mepacrine] — higher, 102%
- Nc1nc2[nH]cc(CCc3ccc(C(=O)N[C@@H](CCC(=O)O)C(=O)O)cc3)c2c(=O)[nH]1 [Pemetrexed] — lower, 97.5%
- COc1cc([C@@H]2c3cc4c(cc3[C@@H](O[C@@H]3O[C@@H]5CO[C@@H](c6cccs6)O[C@H]5[C@H](O)[C@H]3O)[C@H]3COC(=O)[C@H]23)OCO4)cc(OC)c1O [Teniposide] — higher, 103%
- COc1cc2nccc(Oc3ccc(NC(=O)Nc4cc(C)on4)c(Cl)c3)c2cc1OC [Tivozanib] — lower, 87.8%
- Nc1ccccc1NC(=O)c1ccc(CNC(=O)OCc2cccnc2)cc1 [Entinostat] — higher, 99.2%
- C=CC(=O)Nc1cc2c(Nc3ccc(F)c(Cl)c3)ncnc2cc1OCCCN1CCOCC1 [Canertinib] — lower, 91.4%
- CC[C@H](Nc1ncnc2[nH]cnc12)c1nc2cccc(F)c2c(=O)n1-c1ccccc1 [CAL-101] — lower, 89.9%

Same assay, conditions: 25 nM; incubation time: 72 h

In the case of `CC(=O)Nc1cccc(-n2c(=O)n(C3CC3)c(=O)c3c(Nc4ccc(I)cc4F)n(C)c(=O)c(C)c32)c1`, the normalised viability is reported as 39.6%.

Same assay, conditions: 99 nM; incubation time: 72 h

Work on `CCN(CC)CCCC(C)Nc1c2ccc(Cl)cc2nc2ccc(OC)cc12` (stereo not given) [Mepacrine] yielded a normalised viability of 81.4%.

Same assay, conditions: 100 nM; incubation time: 72 h

Point of comparison: `CC[C@@H]1C(=O)N(C)c2cnc(Nc3ccc(C(=O)NC4CCN(C)CC4)cc3OC)nc2N1C1CCCC1` [BI 2536], normalised viability 41.8%. Against it:
- O=C(/C=C/c1cccnc1)NCCCCC1CCN(C(=O)c2ccccc2)CC1 [FK-866] — lower, 27.9%

Same assay, conditions: 250 nM; incubation time: 72 h

`CC(=O)Nc1cccc(-n2c(=O)n(C3CC3)c(=O)c3c(Nc4ccc(I)cc4F)n(C)c(=O)c(C)c32)c1` showed a normalised viability of 38.7%.

Same assay, conditions: 990 nM; incubation time: 72 h

`CCN(CC)CCCC(C)Nc1c2ccc(Cl)cc2nc2ccc(OC)cc12` (stereo not given) [Mepacrine] was tested, and the normalised viability was 8.45%.

Same assay, conditions: 1000 nM; incubation time: 72 h

`Nc1ncn([C@H]2C[C@H](O)[C@@H](CO)O2)c(=O)n1` [Decitabine] was tested, and the normalised viability was 74% and 92.3%.

Point of comparison: `CC[C@H](Nc1ncnc2[nH]cnc12)c1nc2cccc(F)c2c(=O)n1-c1ccccc1` [CAL-101], normalised viability 92.1%. Against it:
- O=C(/C=C/c1cccnc1)NCCCCC1CCN(C(=O)c2ccccc2)CC1 [FK-866] — lower, 23.2%
- CC[C@@H]1C(=O)N(C)c2cnc(Nc3ccc(C(=O)NC4CCN(C)CC4)cc3OC)nc2N1C1CCCC1 [BI 2536] — lower, 41%
- CCN(CC)CCCC(C)Nc1c2ccc(Cl)cc2nc2ccc(OC)cc12 (stereo not given) [Mepacrine] — lower, 65%
- Nc1nc2[nH]cc(CCc3ccc(C(=O)N[C@@H](CCC(=O)O)C(=O)O)cc3)c2c(=O)[nH]1 [Pemetrexed] — higher, 98.9%
- COc1cc([C@@H]2c3cc4c(cc3[C@@H](O[C@@H]3O[C@@H]5CO[C@@H](c6cccs6)O[C@H]5[C@H](O)[C@H]3O)[C@H]3COC(=O)[C@H]23)OCO4)cc(OC)c1O [Teniposide] — lower, 73.7%
- COc1cc2nccc(Oc3ccc(NC(=O)Nc4cc(C)on4)c(Cl)c3)c2cc1OC [Tivozanib] — lower, 78.1%
- O=C(Cc1ccc(-c2ccc(OCCN3CCOCC3)cc2)cn1)NCc1ccccc1 [KX2-391] — lower, 18.1%
- Nc1ccccc1NC(=O)c1ccc(CNC(=O)OCc2cccnc2)cc1 [Entinostat] — lower, 78.7%
- C=CC(=O)Nc1cc2c(Nc3ccc(F)c(Cl)c3)ncnc2cc1OCCCN1CCOCC1 [Canertinib] — lower, 70.6%
